Experimental findings from PubChem BioAssay AID1259407 (Chemical Carcinogenesis Research Information System (CCRIS), 2018) are described below.

The data set concerns CCRIS mutagenicity, Ames/micronucleus/aberration tests. The data set can be described thus: CCRIS mutagenicity studies.
The mark [1] stands for this setting: Test System: AMES SALMONELLA TYPHIMURIUM, Strain/Indicator: TA98, Metabolic Activation: NONE, Method: PREINCUBATION
Setting [2] is: Test System: AMES SALMONELLA TYPHIMURIUM, Strain/Indicator: TA100, Metabolic Activation: NONE, Method: STANDARD PLATE.
The mark [3] stands for this setting: Test System: Ames Salmonella typhimurium, Strain/Indicator: TA100, Metabolic Activation: None, Method: Preincubation.
Where [4] appears, read: Test System: AMES SALMONELLA TYPHIMURIUM, Strain/Indicator: TA100, Metabolic Activation: NONE, Method: PREINCUBATION

Calls of active or inactive are those of the source. No rule for the calls is given here.

Take `Cc1cccn2c1nc1ccc(NO)nc12`: the mutagenic call was “active; positive” under setting [1]; “active; positive” (Test System: AMES SALMONELLA TYPHIMURIUM, Strain/Indicator: YG1020, Metabolic Activation: NONE, Method: PREINCUBATION); “active; positive” (Test System: AMES SALMONELLA TYPHIMURIUM, Strain/Indicator: YG1021, Metabolic Activation: NONE, Method: PREINCUBATION); “active; positive” (Test System: AMES SALMONELLA TYPHIMURIUM, Strain/Indicator: YG1024, Metabolic Activation: NONE, Method: PREINCUBATION); “inactive; negative” (Test System: AMES SALMONELLA TYPHIMURIUM, Strain/Indicator: YG1025, Metabolic Activation: NONE, Method: PREINCUBATION); “active; positive” (Test System: AMES SALMONELLA TYPHIMURIUM, Strain/Indicator: YG1029, Metabolic Activation: NONE, Method: PREINCUBATION). Besides, the mutagenic call (Test System: AMES SALMONELLA TYPHIMURIUM, Strain/Indicator: YG1041, Metabolic Activation: NONE, Method: PREINCUBATION) was “active; positive”.

Take `O=S(=O)(Cc1ccccc1)N1[C@@H]2c3ccccc3-c3ccccc3[C@@H]21` (stereo not given in full): under setting [2], the mutagenic call is “active; positive”.

As to `Nc1ccc(-c2cc(Cl)c(N)cc2[N+](=O)[O-])cc1Cl`, the mutagenic call runs as follows: (Test System: Ames Salmonella typhimurium, Strain/Indicator: TA98, Metabolic Activation: None, Method: Preincubation) “active; positive. weak response”; (Test System: Ames Salmonella typhimurium, Strain/Indicator: TA98, Metabolic Activation: Rat, Liver, S-9, Phenobarbital and 5,6-benzoflavone, Method: Preincubation) “active; positive”; under setting [3], “inactive; negative”; (Test System: Ames Salmonella typhimurium, Strain/Indicator: TA100, Metabolic Activation: Rat, Liver, S-9, Phenobarbital and 5,6-benzoflavone, Method: Preincubation) “active; positive. weak response”; (Test System: Ames Salmonella typhimurium, Strain/Indicator: YG1024, Metabolic Activation: None, Method: Preincubation) “active; positive”; (Test System: Ames Salmonella typhimurium, Strain/Indicator: YG1024, Metabolic Activation: Rat, Liver, S-9, Phenobarbital and 5,6-benzoflavone, Method: Preincubation) “active; positive”. For the same compound, the mutagenic call reads like this: (Test System: Ames Salmonella typhimurium, Strain/Indicator: YG1029, Metabolic Activation: None, Method: Preincubation) “inactive; negative”; (Test System: Ames Salmonella typhimurium, Strain/Indicator: YG1029, Metabolic Activation: Rat, Liver, S-9, Phenobarbital and 5,6-benzoflavone, Method: Preincubation) “active; positive. weak response”.

Consider `NC(=O)/C(=C\c1ccc([N+](=O)[O-])o1)c1ccco1`, for which the mutagenic call (Test System: AMES SALMONELLA TYPHIMURIUM, Strain/Indicator: TA98, Metabolic Activation: NONE, Method: STANDARD PLATE) is “active; positive”; the mutagenic call (Test System: AMES SALMONELLA TYPHIMURIUM, Strain/Indicator: TA98, Metabolic Activation: RAT, LIVER, S-9, KC500 OR PHENOBARBITAL, Method: LIQUID SUSPENSION) is “active; positive”; the mutagenic call under setting [4] is “active; positive”; the mutagenic call under setting [2] was “active; positive”; the mutagenic call (Test System: AMES SALMONELLA TYPHIMURIUM, Strain/Indicator: TA100, Metabolic Activation: RAT, LIVER, S-9, KC500 OR PHENOBARBITAL, Method: LIQUID SUSPENSION) was “active; positive”; the mutagenic call (Test System: AMES SALMONELLA TYPHIMURIUM, Strain/Indicator: YG7112, Metabolic Activation: NONE, Method: PREINCUBATION) was “active; positive”. The mutagenic call is, setting by setting: (Test System: AMES SALMONELLA TYPHIMURIUM, Strain/Indicator: YG7113, Metabolic Activation: NONE, Method: PREINCUBATION) “active; positive”; (Test System: AMES SALMONELLA TYPHIMURIUM, Strain/Indicator: YG7119, Metabolic Activation: NONE, Method: PREINCUBATION) “active; positive”; under setting [3], “active; positive”; (Test System: Ames Salmonella typhimurium, Strain/Indicator: TA1975P, Metabolic Activation: None, Method: Preincubation) “active; positive (at higher doses)”; (Test System: CHINESE HAMSTER V-79, Strain/Indicator: V-79/8-AZAGUANINE, Metabolic Activation: NONE, Method: STANDARD PLATE) “active; positive”; (Test System: E. COLI, Strain/Indicator: WP2, Metabolic Activation: NONE, Method: PREINCUBATION) “active; positive”. The mutagenic call is “active; positive” (Test System: E. COLI, Strain/Indicator: WP2 UVRA, Metabolic Activation: NONE, Method: SPOT); “active; positive” (Test System: MOUSE LYMPHOMA, Strain/Indicator: L5178Y (TK+/TK-), Metabolic Activation: NONE, Method: SUSPENSION/PLATE); “active; positive” (Test System: MOUSE LYMPHOMA, Strain/Indicator: L5178Y (TK+/TK-), Metabolic Activation: RAT, LIVER, S-9, AROCLOR 1254, Method: SUSPENSION/PLATE).

Turning to `O=C1NCNC(=O)N1`, the mutagenic call is “active; positive” (Test System: AMES SALMONELLA TYPHIMURIUM, Strain/Indicator: TA98, Metabolic Activation: MAIZE SEEDLING, S-14, Method: PREINCUBATION); “active; positive” (Test System: AMES SALMONELLA TYPHIMURIUM, Strain/Indicator: TA98, Metabolic Activation: MOUSE, LIVER, S-9, Method: PREINCUBATION); “inactive; negative” under setting [1]; “active; positive” (Test System: AMES SALMONELLA TYPHIMURIUM, Strain/Indicator: TA100, Metabolic Activation: MAIZE SEEDLING, S-14, Method: PREINCUBATION); “inactive; negative” (Test System: AMES SALMONELLA TYPHIMURIUM, Strain/Indicator: TA100, Metabolic Activation: MOUSE, LIVER, S-9, Method: PREINCUBATION); “inactive; negative” under setting [4]. Also, the mutagenic call is “inactive; negative” (Test System: AMES SALMONELLA TYPHIMURIUM, Strain/Indicator: TA1535, Metabolic Activation: NONE, Method: PREINCUBATION); “inactive; negative” (Test System: AMES SALMONELLA TYPHIMURIUM, Strain/Indicator: TA1537, Metabolic Activation: NONE, Method: PREINCUBATION); “inactive; negative” (Test System: AMES SALMONELLA TYPHIMURIUM, Strain/Indicator: TA1538, Metabolic Activation: NONE, Method: PREINCUBATION).
